Read-outs that look alike come from different tables or passages of the source.
Tests used:
[1] = target: hepatic lipase (HL) (Homo sapiens (Human), UniProt P11150); assay: HL assay: hepatic lipase activity with fluorescent substrate A10070 in DMPG vesicles; type: biochemical
Description: (§1) Endothelial lipase (EL) and hepatic lipase (HL) activities were measured using a fluorescent substrate, A10070, (Invitrogen, CA) doped into an artificial vesicle containing DMPG (Avanti Polar Lipids) as the excipient. Vesicles were prepared by combining 571 μL of 29 mM DMPG in a 1:1 mixture of MeOH and CHCl3 with 2000 μL of 1 mM A10070 in a 1:1 mixture of MeOH and CHCl3. The mixture was dried under nitrogen in multiple vials then resuspended in 20 mL total volume of 50 mM HEPES pH 8.0 buffer containing 50 mM NaCl and 0.2 mM EDTA. The sample was allowed to sit at room temperature for 15 min and then was sonicated 3×4 mins on ice with a Branson Sonicator using duty cycle 1. This preparation provides vesicles with a mole fraction of 0.11 for the FRET substrate.
(§2) The enzymatic assay was measured using 384-well white Optiplates. Each well contained 20 μL of assay buffer (50 mM HEPES pH 8.0, 50 mM NaCl and 1 mM CaCl2) and 0.25 μL of a DMSO solution containing a compound of interest. EL or HL (10 μL) was added and allowed to incubate with the compound for 30 min at 37° C. The source of EL was conditioned media obtained from HT-1080 cells that were transformed using RAGE technology (Athersys) to overexpress endogenous EL, and HL was partially purified from conditioned media obtained from COS cells overexpressing HL. The reaction was started by the addition of 10 μL of a 1:10 dilution of vesicles. The final total reaction volume was […]. The reaction rates were measured on a Gemini plate reader with an excitation wavelength of 490 nm and an emission wavelength of 530 nm. Readings were taken over a period of 60 minutes, and the slope between 300 and 900 secs of the readout was used to calculate the rate of the reaction.

[2] = target: Endothelial lipase (EL) (Homo sapiens (Human), UniProt Q9Y5X9); assay: EL assay: endothelial lipase activity with fluorescent substrate A10070 in DMPG vesicles; type: biochemical
Sequence of Endothelial lipase (EL) (Q9Y5X9 21-500): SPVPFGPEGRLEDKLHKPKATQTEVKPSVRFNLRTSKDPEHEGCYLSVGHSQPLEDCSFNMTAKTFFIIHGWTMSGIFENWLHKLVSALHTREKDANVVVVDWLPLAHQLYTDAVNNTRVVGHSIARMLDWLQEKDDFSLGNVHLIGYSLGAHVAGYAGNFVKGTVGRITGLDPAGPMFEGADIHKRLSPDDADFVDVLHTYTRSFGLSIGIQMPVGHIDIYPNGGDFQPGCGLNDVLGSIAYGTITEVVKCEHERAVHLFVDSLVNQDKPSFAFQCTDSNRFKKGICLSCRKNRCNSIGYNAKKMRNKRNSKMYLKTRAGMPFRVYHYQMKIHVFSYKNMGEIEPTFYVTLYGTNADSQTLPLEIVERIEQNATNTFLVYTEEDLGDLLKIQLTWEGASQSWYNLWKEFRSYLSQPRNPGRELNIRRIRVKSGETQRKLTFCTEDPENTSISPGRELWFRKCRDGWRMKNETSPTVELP
Description: as §1, §2

[3] = EL from conditioned media of HT-1080 cells, 30 min incubation with compound at 37° C., A10070/DMPG vesicles

Sequence of hepatic lipase (HL) (P11150 23-499, species assumed): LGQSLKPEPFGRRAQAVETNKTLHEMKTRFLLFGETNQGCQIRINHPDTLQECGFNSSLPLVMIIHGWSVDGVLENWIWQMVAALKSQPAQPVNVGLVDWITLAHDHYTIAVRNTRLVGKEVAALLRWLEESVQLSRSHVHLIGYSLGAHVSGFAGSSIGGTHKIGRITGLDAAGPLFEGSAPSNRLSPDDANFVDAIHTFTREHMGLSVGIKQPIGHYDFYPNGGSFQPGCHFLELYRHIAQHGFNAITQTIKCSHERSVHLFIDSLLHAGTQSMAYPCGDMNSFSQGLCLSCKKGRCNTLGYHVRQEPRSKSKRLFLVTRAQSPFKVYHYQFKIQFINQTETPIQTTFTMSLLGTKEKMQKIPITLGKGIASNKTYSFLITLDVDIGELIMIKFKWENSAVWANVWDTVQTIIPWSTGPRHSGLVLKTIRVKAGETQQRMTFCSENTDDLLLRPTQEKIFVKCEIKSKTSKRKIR

Molecule: 2-[6-(2-fluorophenyl)-1,3- benzothiazol-2-yl]-N-(2- sulfamoylethyl)-2-(3,3,3- trifluoropropanesulfonyl)a- cetamide [Example B307]
- IC50 [1]: 0.0015 µM
- IC50 [2]: 0.003 µM

Molecule: 2-[6-(3-fluoro-2-hydroxy- pyridin-4-yl)-1,3- benzothiazol-2-yl]-N-(2- sulfamoylethyl)-2-{[4- (trifluoromethoxy)phen- yl]methanesulfonyl}a- cetamide [Example B376]
- IC50 [1]: 4.7 µM
- IC50 [2]: 0.0071 µM

Molecule: CS(=O)(=O)C(C(=O)NCCS(=O)(=O)Nc1ccccc1)c1nc2ccc(-c3ccnc(F)c3)cc2s1 (stereo not drawn) [Example B24, 2-(6-(2-fluoro-4-pyridinyl)-1,3-benzothiazol-2-yl)-2-(methylsulfonyl)-N-(2-(phenylsulfamoyl)ethyl)acetamide]
- IC50 [2, 3]: 0.035 µM

Molecule: NS(=O)(=O)CCNC(=O)C(c1nc2c(F)cc(-c3ccccc3)cc2s1)S(=O)(=O)CCC(F)(F)F (stereo not drawn) [Example B26, 2-(4-Fluoro-6-phenylbenzo[d]thiazol-2-yl)-N-(2-sulfamoylethyl)-2-((3,3,3-trifluoropropyl)sulfonyl)acetamide]
- IC50 [2, 3]: < 0.01 µM

Molecule: NC(=O)c1ccc(-c2cc3sc(C(C(=O)N[C@@H]4CCNC4=O)S(=O)(=O)Cc4ccccc4)nc3cc2F)cc1 (stereo partly drawn) [Example B27, 4-(2-(1-(benzylsulfonyl)-2-oxo-2-(((3R)-2-oxo-3-pyrrolidinyl)amino)ethyl)-5-fluoro-1,3-benzothiazol-6-yl)benzamide]
- IC50 [2, 3]: 0.093 µM

Molecule: Cc1nnc(CNC(=O)C(c2nc3cc(C)c(-c4ccccc4)cc3s2)S(=O)(=O)Cc2ccccc2)o1 (stereo not drawn) [Example B28, 2-(benzylsulfonyl)-N-((5-methyl-1,3,4-oxadiazol-2-yl)methyl)-2-(5-methyl-6-phenyl-1,3-benzothiazol-2-yl)acetamide]
- IC50 [2, 3]: 0.012 µM

Molecule: CS(=O)(=O)C(C(=O)NCCS(=O)(=O)NCC(F)(F)F)c1nc2ccc(-c3ccnc(F)c3)cc2s1 (stereo not drawn) [Example B30, 2-(6-(2-Fluoro-4-pyridinyl)-1,3-benzothiazol-2-yl)-2-(methylsulfonyl)-N-(2-((2,2,2-trifluoroethyl)sulfamoyl)ethyl)acetamide]
- IC50 [2, 3]: 0.277 µM

Molecule: CC(C)(C)NC(=O)c1ccc(-c2ccc3nc(C(C(=O)NCCS(N)(=O)=O)S(C)(=O)=O)sc3c2)cc1 (stereo not drawn) [Example B31, N-tert-Butyl-4-(2-(1-(methylsulfonyl)-2-oxo-2-((2-sulfamoylethyl)amino)ethyl)-1,3-benzothiazol-6-yl)benzamide]
- IC50 ([1]; HL partially purified from conditioned media of COS cells, 30 min incubation with compound at 37° C., A10070/DMPG vesicles): 0.257 µM
- IC50 [2, 3]: < 0.01 µM

Molecule: CS(=O)(=O)C(C(=O)NCCS(N)(=O)=O)c1nc2ccc(-c3ccc(C(=O)N4CCOCC4)c(Cl)c3)cc2s1 (stereo not drawn) [Example B32, 2-(6-(3-chloro-4-(4-morpholinylcarbonyl)phenyl)-1,3-benzothiazol-2-yl)-2-(methylsulfonyl)-N-(2-sulfamoylethyl)acetamide]
- IC50 [1]: 0.923 µM
- IC50 [2]: < 0.01 µM

Molecule: Cc1cc(-c2ccc3nc(C(C(=O)NCCS(N)(=O)=O)S(C)(=O)=O)sc3c2)cnc1F (stereo not drawn) [Example B33, 2-(6-(6-fluoro-5-methyl-3-pyridinyl)-1,3-benzothiazol-2-yl)-2-(methylsulfonyl)-N-(2-sulfamoylethyl)acetamide]
- IC50 [1]: 0.022 µM
- IC50 [2]: 0.014 µM

Molecule: CS(=O)(=O)C(C(=O)NCCS(N)(=O)=O)c1nc2ccc(-c3cnn(CCN4CCOCC4)c3)cc2s1 (stereo not drawn) [Example B34, 2-(methylsulfonyl)-2-(6-(1-(2-(4-morpholinyl)ethyl)-1H-pyrazol-4-yl)-1,3-benzothiazol-2-yl)-N-(2-sulfamoylethyl)acetamide]
- IC50 [1]: 0.313 µM
- IC50 [2]: < 0.01 µM

Molecule: COCCNC(=O)c1ccc(-c2ccc3nc(C(C(=O)NCCS(N)(=O)=O)S(C)(=O)=O)sc3c2)cc1 (stereo not drawn) [Example B35, N-(2-methoxyethyl)-4-(2-{1-(methylsulfonyl)-2-oxo-2-[(2-sulfamoylethyl)a-mino]ethyl}-1,3-benzothiazol-6-yl)ben-zamide]
- IC50 [1]: 0.043 µM
- IC50 [2]: < 0.01 µM

Molecule: CS(=O)(=O)C(C(=O)NCCS(N)(=O)=O)c1nc2ccc(-c3ccc(F)cc3)cc2s1 (stereo not drawn) [Example B36, 2-(6-(4-fluorophenyl)-1,3-benzothiazol-2-yl)-2-(methylsulfonyl)-N-(2-sulfamoylethyl)acetamide]
- IC50 [1]: < 0.01 µM
- IC50 [2]: < 0.01 µM

Molecule: CS(=O)(=O)C(C(=O)NCCS(N)(=O)=O)c1nc2ccc(-c3cccc(F)c3)cc2s1 (stereo not drawn) [Example B37, 2-(6-(3-fluorophenyl)-1,3-benzothiazol-2-yl)-2-(methylsulfonyl)-N-(2-sulfamoylethyl)acetamide]
- IC50 [1]: < 0.01 µM
- IC50 [2]: < 0.01 µM

Molecule: CS(=O)(=O)C(C(=O)NCCS(N)(=O)=O)c1nc2ccc(-c3ccc4c(c3)OCO4)cc2s1 (stereo not drawn) [Example B38, 2-(6-(1,3-benzodioxol-5-yl)-1,3-benzothiazol-2-yl)-2-(methylsulfonyl)-N-(2-sulfamoylethyl)acetamide]
- IC50 [1]: < 0.01 µM
- IC50 [2]: < 0.01 µM

Molecule: CS(=O)(=O)C(C(=O)NCCS(N)(=O)=O)c1nc2ccc(-c3ccc(OC(F)(F)F)cc3)cc2s1 (stereo not drawn) [Example B39, 2-(methylsulfonyl)-N-(2-sulfamoylethyl)-2-(6-(4-(trifluoromethoxy)phenyl)-1,3-benzothiazol-2-yl)acetamide]
- IC50 [1]: < 0.01 µM
- IC50 [2]: < 0.01 µM

Molecule: CS(=O)(=O)C(C(=O)NCCS(N)(=O)=O)c1nc2ccc(-c3ccc(C(=O)NCCO)cc3)cc2s1 (stereo not drawn) [Example B40, N-(2-hydroxyethyl)-4-(2-(1-(methylsulfonyl)-2-oxo-2-((2-sulfamoylethyl)a-mino)ethyl)-1,3-benzothiazol-6-yl)ben-zamide]
- IC50 [1]: 0.019 µM
- IC50 [2]: < 0.01 µM

Molecule: CS(=O)(=O)C(C(=O)NCCS(N)(=O)=O)c1nc2ccc(-c3ccc(C(=O)NCC(F)(F)F)cc3)cc2s1 (stereo not drawn) [Example B41, 4-(2-(1-(methylsulfonyl)-2-oxo-2-((2-sulfamoylethyl)a-mino)ethyl)-1,3-benzothiazol-6-yl)-N-(2,2,2-trifluoroethyl)ben-zamide]
- IC50 [1]: 0.017 µM
- IC50 [2]: < 0.01 µM

Molecule: CS(=O)(=O)C(C(=O)NCCS(N)(=O)=O)c1nc2ccc(-c3ccc(OCCN4CCCCC4)cc3)cc2s1 (stereo not drawn) [Example B42, 2-(methylsulfonyl)-2-(6-(4-(2-(1-piperidinyl)ethoxy)phen-yl)-1,3-benzothiazol-2-yl)-N-(2-sulfamoylethyl)a-cetamide]
- IC50 [1]: 0.01 µM
- IC50 [2]: < 0.01 µM

Molecule: CC1CCN(C(=O)c2ccc(-c3ccc4nc(C(C(=O)NCCS(N)(=O)=O)S(C)(=O)=O)sc4c3)cc2)CC1 (stereo not drawn) [Example B43, 2-(6-{4-[(4-methyl-1-piperidinyl)carbonyl]phen-yl}-1,3-benzothiazol-2-yl)-2-(methylsulfonyl)-N-(2-sulfamoylethyl)a-cetamide]
- IC50 [1]: < 0.01 µM
- IC50 [2]: < 0.01 µM

Molecule: CC(=O)Nc1ccc(-c2ccc3nc(C(C(=O)NCCS(N)(=O)=O)S(=O)(=O)Cc4ccccc4)sc3c2)cc1 (stereo not drawn) [Example B44, 2-(6-(4-acetamidophenyl)-1,3-benzothiazol-2-yl)-2-(benzylsulfonyl)-N-(2-sulfamoylethyl)acetamide]
- IC50 [1]: 0.148 µM
- IC50 [2]: < 0.01 µM

Molecule: NS(=O)(=O)CCNC(=O)C(c1nc2ccc(-c3ccc(C(=O)NCC(F)(F)F)cc3)cc2s1)S(=O)(=O)CCC(F)(F)F (stereo not drawn) [Example B45, 4-(2-(2-oxo-2-((2-sulfamoylethyl)amino)-1-((3,3,3-trifluoropropyl)sul-fonyl)ethyl)-1,3-benzothiazol-6-yl)-N-(2,2,2-trifluoroethyl)ben-zamide]
- IC50 [1]: 0.038 µM
- IC50 [2]: < 0.01 µM

Molecule: NS(=O)(=O)CCNC(=O)C(c1nc2ccc(-c3ccc(C(=O)NCCO)cc3)cc2s1)S(=O)(=O)CCC(F)(F)F (stereo not drawn) [Example B46, N-(2-hydroxyethyl)-4-(2-(2-oxo-2-((2-sulfamoylethyl)amino)-1-((3,3,3-trifluoropropyl)sul-fonyl)ethyl)-1,3-benzothiazol-6-yl)ben-zamide]
- IC50 [1]: 0.52 µM
- IC50 [2]: < 0.01 µM

Molecule: CS(=O)(=O)C(C(=O)NCCS(N)(=O)=O)c1nc2ccc(-c3ccc(CCO)cc3)cc2s1 (stereo not drawn) [Example B47, 2-(6-(4-(2-hydroxyethyl)phenyl)-1,3-benzothiazol-2-yl)-2-(methylsulfonyl)-N-(2-sulfamoylethyl)acetamide]
- IC50 [1]: 0.035 µM
- IC50 [2]: < 0.01 µM

Molecule: C=CCC(C(=O)NCCS(N)(=O)=O)c1nc2ccc(-c3ccccc3)cc2s1 (stereo not drawn) [Reference 1, 2-(6-Phenyl-1,3-benzothiazol-2-yl)-N-(2-sulfamoylethyl)-4-pentenamide, reference compound]
- IC50 [2]: 9.4 µM

Molecule: CC(C)c1cc(CNC(=O)C(C)(C)c2nc3ccc(-c4ccccc4)cc3s2)on1 [Reference 2, N-((3-isopropylisoxazol-5-yl)methyl)-2-methyl-2-(6-phenylbenzo[d]thiazol-2-yl)propanamide, reference compound]
- IC50 [2, 3]: > 62 µM

Reference: patent US8987314B2, “Amide, urea or sulfone amide linked benzothiazole inhibitors of endothelial lipase” (Bristol-Myers Squibb Company, priority 2012, dated 2015)
